“Also recorded” adds a separate entry of the source. Ends that are not written are not given here. * marks the point of attachment. Octanoyl = CCCCCCCC(=O)*
Assays:
[1] = system: dividing cells (Ki67+) in the sub-granular zone of the dentate gyrus; experiment: Ki67 cell proliferation in hippocampal dentate gyrus of wild-type and ghsr-/- mice; type: in vivo; conditions: i.v. 48 μg/day for 7 days; for Ki67+ cells (cell proliferation) in the DG of adult wild-type mice: vs saline
Method: To further examine the role of ghrelin in enhancing cell proliferation in the SGZ, the effect of peripherally administered ghrelin in both wild-type and ghrelin-receptor null (ghsr^−/−) mice (Zigman et al. J. Clin. Invest (2005)115 (12:3564-72)) was analysed.
Adult growth hormone secretagogue receptor (GHSR)-null mice (8-10 weeks-old) and their wild-type littermates were used. These were derived from crosses between animals that were heterozygous for the GHSR-null allele and that had been backcrossed >10 generations onto a C57BL6/J genetic background. Metabolic aspects of these mice have been published (Davies et al. 2009 Molecular Endocrinology, 23(6), 914-24.).
Ghrelin was administered peripherally via an intravenous osmotic mini-pump at a rate of 1 μl/hour with a total of 48 μg/day to groups of 6 mice. Control groups were given peripheral saline.
After 7 days, mice were killed by cervical dislocation whole brain was removed and immediately snap frozen on dry ice.
(§1) Cell proliferation in the hippocampal dentate gyms was subsequently analysed using a one-in-fifteen series of 10 μm sections (150 μm apart) from each animal. These were stained for Ki67 immunofluorescence and a primary antibody rabbit anti-Ki67 (1:500 Abcam) applied. Immunolabelled cells were counted throughout the rostro-caudal extent of the granule cell layer and quantified.
(§2) Immunolabelled cells were counted bilaterally using a ×40 objective (Zeiss Axioscope) throughout the rostro-caudal extent of the granule cell layer (GCL). Resulting numbers were divided by the number of coronal sections analyzed and multiplied by the distance between each section to obtain an estimate of the number of cells per hippocampus (and divided by 2 to obtain the total per dentate gyms).
All experiments and analyses were performed blind to genotype and treatment.
Statistical analyses were carried out using GraphPad Prizm 6.0 for Mac. Statistical significance was assessed by unpaired two-tailed Student's t-test or one-way ANOVA with Bonferroni's post-hoc test unless described otherwise: *, P<0.05; **, P<0.01; ***, P<0.001.
(§3) To determine whether unacylated-ghrelin (UAG) regulates NSPC plasticity, cell proliferation and immature neurons were quantified in wild-type mice following either peripheral administration of saline or UAG (i.v, 48 μg/day, n=6/group) for 7-days. The method was similar to that described in Example 1.

[2] = system: immature DCX+ neurons within the SGZ; experiment: Immature DCX+ neurons in the SGZ of wild-type mice; type: in vivo; conditions: i.v. 48 μg/day for 7 days, vs vehicle
From the text: as §1, §2, §3

Ghsr = conditions: cited from earlier work
adult rat hippocampus = experiment: BrdU+ cell proliferation in adult rat hippocampus after 7-day i.v. infusion (FIG. 1A); type: in vivo; conditions: 7-day i.v. infusion 80 μg/day; BrdU 50 mg/kg i.p 30 minutes prior to brain collection; vs vehicle
[3] = system: spatial pattern separation; experiment: Spontaneous location recognition (SLR) task, spatial pattern separation; type: in vivo, rat; conditions: rats, 10 μg/kg i.p daily days 1-14, tested days 22-26
Method: A) Experimental paradigm B) Schematic of Spontaneous location recognition (SLR) task. During a sample phase animals were exposed to 3 identical objections (two were located close together (small separation) or very close together (X-small separation) and the 3rd was further away) for 10 minutes. 24 hours later the rats were exposed to 2 of the objects during the test phase and the time spent exploring each object was measured. Dotted objects indicate the original location during the sample phase. C) Discrimination ratios during the test phase for ‘novel’ conditions in the SLR task. […] D) Representative images of the new adult-born DG neurons (white arrows) co-expressing NeuN^+ and BrdU^+. […] Scale bar=100 μm.
(§4) Adult male Lister-hooded rats (n=12/group) were given daily injections of either saline or ghrelin (10 μg/kg i.p) (days 1-14) and BrdU (50 mg/kg i.p) on days 5-8 prior to analysis of spatial pattern separation using a spontaneous location recognition task (SLR) on days 22-26.
To reduce/avoid the acute LTP-mediated effects on pattern separation the final injection of ghrelin was given 7 days before the start of cognitive testing.

[4] = system: new adult-born DG neurons; experiment: New adult-born neurons (BrdU+/NeuN+) and neuroblasts (DCX+) in rat DG; type: in vivo; conditions: rats; for total number of new adult-born neurones (BrdU+/NeuN+) in the DG: 10 μg/kg i.p daily days 1-14, BrdU days 5-8, vs saline
Method: as §4
Animals were anesthetized with sodium pentobarbital and perfused transcardially with 0.9% NaCl solution, followed by 4% paraformaldehyde (PFA) in 0.1M phosphate buffer, pH 7.4. Brains were post-fixed in 4% PFA for 24 h, and cryoprotected in 30% sucrose for 24 h. The brains were then sectioned on a freezing-stage microtome into a 30 μm thick coronal section series. Immunohistochemical staining was performed on free-floating sections.
For detection of BrdU, sections were pre-treated with 2N HCl for 30 mins at 37° C. and washed in 0.1 M borate buffer, pH8.5, for 10 min. Immunofluorescent double-labeling was performed.
Primary antibodies used were: mouse anti-BrdU (1:50 AbD Serotec, UK), goat anti-doublecortin (Santa Cruz Biotechnology, USA), mouse anti-NeuN (Chemicon, Temecula, Calif., USA). Sections were also stained with Hoechst (Invitrogen) and mounted with prolong-gold anti-fade reagent (Invitrogen).
A one-in-twelve series of 30 μm sections (360 μm apart) from each animal was immunohistologically stained (as described in Example 1 above) and analysed by fluorescent and/or confocal microscopy. Immunolabelled cells were counted also as described in Example 1. Only cells with complete/strong BrdU immunoreactivity, oval nuclei, were counted.

[5] = rats; 10 μg/kg i.p; cited from earlier work

Substance	Ki67+ cells (cell proliferation) in the DG of adult wild-type mice [1]	number of immature DCX+ neurons within the SGZ [2]	binding or activation of Ghsr (Ghsr)	number of BrdU+ cells in adult rat hippocampus (adult rat hippocampus)	Ki67+ cells (cell proliferation) in the DG of ghsr-/- mice ([1]; ghrelin-receptor null (ghsr-/-) mice)	Ki67+ cells (cell proliferation) in the DG of adult wild-type mice ([1]; listed as Ghrelin)	SLR task, discrimination of 'novel' location, X-small separation condition (pattern separation) [3]	SLR task, discrimination of 'novel' location, small separation condition [3]	SLR task, discrimination of 'novel' location, X-small separation condition (pattern separation) ([3]; listed as acyl-ghrelin)	total number of new adult-born neurones (BrdU+/NeuN+) in the DG [4]	total number of new adult-born neurones (BrdU+/NeuN+) in the DG ([4]; listed as Ghrelin)	total number of new adult-born neurones (BrdU+/NeuN+) in the DG ([4]; listed as acyl-ghrelin)	DG neuroblast number (DCX+) ([4]; 14 days after the final injection, data not shown)	food intake [5]
UAG: unacylated-ghrelin, the de-acylated form of ghrelin (GSSFLSPEHQRVQQRKESKKPPAKLQPR; Ghrelin-28 unacylated; UniProt Q9UBU3 24-51, looked up)	impairments observed in hippocampal cell proliferation; also recorded: reduced the number of dividing cells; also recorded: attenuated hippocampal cell proliferation	impairments; also recorded: reduced; also recorded: significant reduction in the number of immature DCX^+ neurons	does not bind or activate Ghsr	–	–	–	–	–	–	–	–	–	–	–
ghrelin: gut hormone, 28 amino acid peptide with octanoyl modification on Ser-3; endogenous ligand of GHS-R 1a (GSS(Octanoyl)FLSPEHQRVQQRKESKKPPAKLQPR; UniProt Q9UBU3 24-51, looked up)	increased Ki67^+ cells	–	–	increased the number of BrdU^+ cells	no corresponding increase was observed; also recorded: inhibited the proliferative effect of ghrelin	significant increase in cell proliferation	only ghrelin treated rats showed enhanced exploratory behaviour; also recorded: able to distinguish between very similar spatial locations	enhanced exploratory behaviour for the ‘novel’ location in the small separation condition; also recorded: able to distinguish similar but distinct spatial locations	improved pattern separation learning	significantly increased	significantly increased the number of new adult-born neurons	increased the number of new adult born neurons	remained significantly higher	increase food intake
